From patent publication US8652999B1, “Herbicidal compositions comprising 4-amino-3-chloro-5-fluoro-6-(4-chloro-2-fluoro-3-methoxyphenyl)pyridine-2-carboxylic acid or a derivative thereof and a sulfonylaminocarbonyltriazolinone” (Dow AgroSciences, LLC., priority 2012, dated 2014)

How the values were obtained:
Type in all cases: in vivo
Papaver rhoeas (PAPRH) = test: Postemergence herbicidal activity, greenhouse, PAPRH; conditions: foliar, 20-22 days
Experimental: (§1) Evaluation of Postemergence Herbicidal Activity of Mixtures in Cereal Crops
(§2) Seeds of the desired test plant species were planted in Sun Gro MetroMix® 306 planting mixture, which typically has a pH of 6.0 to 6.8 and an organic matter content of about 30 percent, in plastic pots with a surface area of 103.2 square centimeters (cm^2). […] The plants were grown for 7-36 days in a greenhouse with an approximate 14 hour photoperiod which was maintained at about 18° C. during the day and 17° C. during the night. Nutrients and water were added on a regular basis and supplemental lighting was provided with overhead metal halide 1000-Watt lamps as necessary. The plants were employed for testing when they reached the second or third true leaf stage.
(§3) Treatments consisted of the benzyl ester of the compound of formula (I) (Compound A as listed in Tables 1-8) and a second cereal herbicide alone and in combination. […] The concentrated stock solutions were diluted to 1.5 mg ai/mL with the addition of 2 volumes of an aqueous mixture containing acetone, water, isopropyl alcohol, DMSO, Agri-dex crop oil concentrate, and Triton® X-77 surfactant in a 64.7:26.0:6.7:2.0:0.7:0.01 v/v ratio. A dilution solution was prepared by mixing 1 volume of 97:3 v/v acetone/DMSO and 2 volumes of an aqueous mixture containing acetone, water, isopropyl alcohol, DMSO, Agri-dex crop oil concentrate, and Triton® X-77 surfactant in a 64.7:26.0:6.7:2.0:0.7:0.01 v/v ratio. Compound requirements are based upon a 12 mL application volume at a rate of 187 liters per hectare (L/ha). […] Formulated compounds were applied to the plant material with an overhead Mandel track sprayer equipped with 8002E nozzles calibrated to deliver 187 L/ha over an application area of 0.503 square meters (m^2) at a spray height of 18 inches (43 cm) above average plant canopy. Control plants were sprayed in the same manner with the solvent blank.
(§4) The treated plants and control plants were placed in a greenhouse as described above and watered by sub-irrigation to prevent wash-off of the test compounds. After 20-22 days, the condition of the test plants as compared with that of the control plants was determined visually and scored on a scale of 0 to 100 percent where 0 corresponds to no injury and 100 corresponds to complete kill.
(§5) Colby's equation was used to determine the herbicidal effects expected from the mixtures (Colby, S. R. 1967. Calculation of the synergistic and antagonistic response of herbicide combinations. Weeds 15:20-22.). Specifically, the following equation was used to calculate the expected activity of mixtures containing two active ingredients, A and B: Expected=A+B−(A×B/100) • A=observed efficacy of active ingredient A at the same concentration as used in the mixture. • B=observed efficacy of active ingredient B at the same concentration as used in the mixture.

Veronica persica (VERPE) = test: Postemergence herbicidal activity, greenhouse, VERPE; conditions: foliar, 20-22 days
Experimental: as §1, §2, §3, §4, §5

[1] = tested on: Triticum aestivum (TRZAW); test: Postemergence herbicidal activity, greenhouse, TRZAW; conditions: foliar, 20-22 days
Experimental: as §1, §2, §3, §4, §5

[2] = tested on: Lolium multiflorum subsp. gaudini (LOLMG); test: Postemergence herbicidal activity, greenhouse, LOLMG; conditions: foliar, 20-22 days
Experimental: as §1, §2, §3, §4, §5

Salsola tragus (SASKR) = test: Postemergence herbicidal activity, greenhouse, SASKR; conditions: foliar, 20-22 days
Experimental: as §1, §2, §3, §4, §5

Cirsium arvense (CIRAR) = test: Postemergence herbicidal activity, greenhouse, CIRAR; conditions: foliar, 20-22 days
Experimental: as §1, §2, §3, §4, §5

[3] = tested on: Alopecurus myosuroides (ALOMY); test: Postemergence herbicidal activity, greenhouse, ALOMY; conditions: foliar, 20-22 days
Experimental: as §1, §2, §3, §4, §5

[4] = tested on: Matricaria chamomila (MATCH); test: Postemergence herbicidal activity, greenhouse, MATCH; conditions: foliar, 20-22 days
Experimental: as §1, §2, §3, §4, §5

[5] = tested on: Apera spica-venti (APESV); test: Postemergence herbicidal activity, greenhouse, APESV; conditions: foliar, 20-22 days
Experimental: as §1, §2, §3, §4, §5

Stellaria media (STEME) = test: Postemergence herbicidal activity, greenhouse, STEME; conditions: foliar, 20-22 days
Experimental: as §1, §2, §3, §4, §5

Viola tricolor (VIOTR) = test: Postemergence herbicidal activity, greenhouse, VIOTR; conditions: foliar, 20-22 days
Experimental: as §1, §2, §3, §4, §5

Lamium purpureum (LAMPU) = test: Postemergence herbicidal activity, greenhouse, LAMPU; conditions: Propoxycarbazone-Na 15 g/ha; foliar; 20-22 days
Experimental: as §1, §2, §3, §4
(§6) Colby's equation was used to determine the herbicidal effects expected from the mixtures (Colby, S. R. 1967. Calculation of the synergistic and antagonistic response of herbicide combinations. Weeds 15:20-22.). […]

Setaria viridis (SETVI) = test: Postemergence herbicidal activity, greenhouse, SETVI; conditions: foliar, 20-22 days
Experimental: as §1, §2, §3, §4, §6

Kochia scoparia (KCHSC) = test: Postemergence herbicidal activity, greenhouse, KCHSC; conditions: foliar, 20-22 days
Experimental: as §1, §2, §3, §4, §5

[6] = Propoxycarbazone-Na 7.5 g ai/ha

Compound: COc1nn(C(=O)NS(=O)(=O)c2ccccc2OC(F)(F)F)c(=O)n1C [Flucarbazone-Na, 4,5-dihydro-3-methoxy-4-methyl-5-oxo-N-[[2-(trifluoromethoxy)phenyl]sulfonyl]-1H-1,2,4-triazole-1-carboxamide]
- PAPRH Obs (Papaver rhoeas (PAPRH); Flucarbazone-Na 3.75 g ai/ha): 0%
- PAPRH Obs (Papaver rhoeas (PAPRH); Flucarbazone-Na 7.5 g ai/ha): 0%
- VERPE Obs (Veronica persica (VERPE); Flucarbazone-Na 3.75 g ai/ha): 0%
- VERPE Obs (Veronica persica (VERPE); Flucarbazone-Na 7.5 g ai/ha): 0%
- VERPE Obs (Veronica persica (VERPE); Flucarbazone-Na 7.5 g/ha): 0%
- TRZAW Obs ([1]; Flucarbazone-Na 3.75 g ai/ha): 2%
- TRZAW Obs ([1]; Flucarbazone-Na 7.5 g ai/ha): 7%
- LOLMG Obs ([2]; Flucarbazone-Na 3.75 g/ha): 0%
- LOLMG Obs ([2]; Flucarbazone-Na 7.5 g/ha): 0%
- SASKR Obs (Salsola tragus (SASKR); Flucarbazone-Na 3.75 g ai/ha): 10%
- SASKR Obs (Salsola tragus (SASKR); Flucarbazone-Na 7.5 g ai/ha): 7%
- CIRAR Obs (Cirsium arvense (CIRAR); Flucarbazone-Na 7.5 g/ha): 50%
- ALOMY Obs ([3]; Flucarbazone-Na 3.75 g/ha): 8%
- ALOMY Obs ([3]; Flucarbazone-Na 7.5 g/ha): 17%
- MATCH Obs ([4]; Flucarbazone-Na 3.75 g ai/ha): 10%
- MATCH Obs ([4]; Flucarbazone-Na 7.5 g ai/ha): 10%
- MATCH Obs ([4]; Flucarbazone-Na 7.5 g/ha): 30%
- APESV Obs ([5]; Flucarbazone-Na 3.75 g/ha): 33%
- APESV Obs ([5]; Flucarbazone-Na 7.5 g/ha): 75%
- STEME Obs (Stellaria media (STEME); Flucarbazone-Na 3.75 g ai/ha): 3%
- STEME Obs (Stellaria media (STEME); Flucarbazone-Na 7.5 g ai/ha): 7%
- STEME Obs (Stellaria media (STEME); Flucarbazone-Na 7.5 g/ha): 60%
- VIOTR Obs (Viola tricolor (VIOTR); Flucarbazone-Na 3.75 g ai/ha): 7%
- VIOTR Obs (Viola tricolor (VIOTR); Flucarbazone-Na 7.5 g ai/ha): 7%

Compound: CCCOc1nn(C(=O)NS(=O)(=O)c2ccccc2C(=O)OC)c(=O)n1C [Propoxycarbazone-Na, methyl 2-[[[(4,5-dihydro-4-methyl-5-oxo-3-propoxy-1H-1,2,4-triazol-1-yl)-carbonyl]amino]sulfonyl]benzoate]
- PAPRH Obs (Papaver rhoeas (PAPRH); [6]): 18%
- PAPRH Obs (Papaver rhoeas (PAPRH); Propoxycarbazone-Na 15 g ai/ha): 23%
- LAMPU Obs (Lamium purpureum (LAMPU)): 0%
- TRZAW Obs [1, 6]: 8%
- TRZAW Obs ([1]; Propoxycarbazone-Na 15 g ai/ha): 5%
- LOLMG Obs ([2]; Propoxycarbazone-Na 7.5 g ha): 3%
- LOLMG Obs ([2]; Propoxycarbazone-Na 15 g ha): 20%
- SETVI Obs (Setaria viridis (SETVI); Propoxycarbazone-Na 7.5 g ha): 0%
- SETVI Obs (Setaria viridis (SETVI); Propoxycarbazone-Na 15 g ha): 0%
- CIRAR Obs (Cirsium arvense (CIRAR); Propoxycarbazone-Na 15 g/ha): 65%
- ALOMY Obs ([3]; Propoxycarbazone-Na 7.5 g ha): 10%
- ALOMY Obs ([3]; Propoxycarbazone-Na 15 g ha): 43%
- MATCH Obs [4, 6]: 13%
- MATCH Obs ([4]; Propoxycarbazone-Na 15 g ai/ha): 20%
- APESV Obs ([5]; Propoxycarbazone-Na 7.5 g ha): 17%
- APESV Obs ([5]; Propoxycarbazone-Na 15 g ha): 23%
- STEME Obs (Stellaria media (STEME); [6]): 12%
- STEME Obs (Stellaria media (STEME); Propoxycarbazone-Na 15 g ai/ha): 10%
- STEME Obs (Stellaria media (STEME); Propoxycarbazone-Na 15 g/ha): 45%
- KCHSC Obs (Kochia scoparia (KCHSC); [6]): 13%
- KCHSC Obs (Kochia scoparia (KCHSC); Propoxycarbazone-Na 15 g ai/ha): 25%
- VIOTR Obs (Viola tricolor (VIOTR); [6]): 13%
- VIOTR Obs (Viola tricolor (VIOTR); Propoxycarbazone-Na 15 g ai/ha): 23%
